The text below walks through data of patent US11253525B2, “Inhibitors of indoleamine 2,3-dioxygenase and methods of their use” (BRISTOL-MYERS SQUIBB COMPANY, priority 2018, dated 2022).

A value given as a limit tells only on which side of the number the result lay.

The first test deals with T1, indoleamine 2,3-dioxygenase (IDO) (Homo sapiens, UniProt P14902).
T1 construct: replaced with media containing IFNγ (#285-IF/CF, R&D Systems) at a final concentration of 25 ng/mL; endogenous in cells; host or cells: HeLa (ATCC CCL-2), IFN-gamma stimulated
T1 sequence (P14902 whole entry): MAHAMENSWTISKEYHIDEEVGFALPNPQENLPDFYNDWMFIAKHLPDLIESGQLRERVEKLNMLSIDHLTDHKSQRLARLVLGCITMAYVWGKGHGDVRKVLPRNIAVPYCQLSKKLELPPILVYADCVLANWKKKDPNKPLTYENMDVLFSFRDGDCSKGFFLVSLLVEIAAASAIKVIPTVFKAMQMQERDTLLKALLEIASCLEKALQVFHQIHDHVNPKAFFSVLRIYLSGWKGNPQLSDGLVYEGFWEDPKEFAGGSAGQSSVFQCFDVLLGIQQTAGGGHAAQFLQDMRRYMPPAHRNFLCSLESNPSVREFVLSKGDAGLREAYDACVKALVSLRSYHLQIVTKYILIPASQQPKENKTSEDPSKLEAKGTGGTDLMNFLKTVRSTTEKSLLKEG
Nature of the test: HeLa cell-based indoleamine 2,3-dioxygenase (IDO) assay, kynurenine production. As to conditions: HeLa cells, IFNγ 25 ng/mL, 48 hour incubation; read-out: IDO Hela IC50. The procedure:
Assessment of Inhibitor Activity in HeLa Cell-Based Indoleamine 23-Dioxygenase (IDO) Assay
Cells were maintained in a humidified incubator at 37° C. in 5% CO2.
IDO activity was assessed as a function of kynurenine production as follows: HeLa cells were seeded in a 96-well culture plate at a density of 5,000 cells/well and allowed to equilibrate overnight. […] A serial dilution of each test compound was added to the cells in a total volume of 200 μL of culture medium. After a further 48 hour incubation, 170 μL of supernatant was transferred from each well to a fresh 96-well plate. 12.1 μL of 6.1N trichloroacetic acid (#T0699, Sigma-Aldrich) was added to each well and mixed, followed by incubation at 65° C. for 20 minutes to hydrolyze N-formylkynurenine, the product of indoleamine 2,3-dioxygenase, to kynurenine. The reaction mixture was then centrifuged for 10 mins at 500×g to sediment the precipitate. 100 μL of the supernatant was transferred from each well to a fresh 96-well plate. […] Kynurenine concentrations were determined by measuring absorbance at 480 nm and calibrating against an L-kynurenine (#K8625, Sigma-Aldrich) standard curve using a SPECTRAMAX® M2e microplate reader (Molecular Devices). The percentage activity at each inhibitor concentration was determined and IC50 values assessed using nonlinear regression.
As to `CC[C@@H](CC(=O)O)c1ccc([C@@H](CC)N2CCOCC2)c(Nc2cnc(C(F)(F)F)nc2)c1` (relative stereo) [Example 130, (S)-3-(4-((R)-1-morpholinopropyl)-3-((2-(trifluoromethyl)pyrimidin-5-yl)amino)phenyl)pentanoic acid], the concentration for half-maximal inhibition (IC50) worked out at 90 nM.

With `CCOc1ncc(Nc2cc([C@@H](CC)CC(=O)O)ccc2[C@@H](OC)C(F)(F)F)cn1` (single isomer, unassigned) [Example 87], the IC50 amounted to 130 nM.

For `CCO[C@@H](c1ccc([C@H](COC)CC(=O)O)cc1NC(=O)Nc1ccc(Cl)cc1F)C(F)(F)F` (single isomer, unassigned) [Example 68], the IC50 is 240 nM.

Turning to `CCOc1ncc(Nc2cc([C@@H](COC)CC(=O)O)ccc2[C@H](CC)N2CCOCC2)cn1` (single isomer, unassigned) [Example 103], the IC50 turned out to be 200 nM.

Regarding `CC[C@H](CC(=O)O)c1ccc([C@@H](CC)N2CCOCC2)c(Nc2ccc(COC)nc2)c1` (relative stereo) [Example 121, (R)-3-(3-((6-(methoxymethyl)pyridin-3-yl)amino)-4-((R)-1-morpholinopropyl)phenyl)pentanoic acid], the half-maximal inhibitory concentration (IC50) was 30 nM.

For the compound `CCOc1ncc(Nc2cc([C@@H](CC)CC(=O)O)ccc2[C@H](CC)N2CCOCC2)cn1` (single isomer, unassigned) [Example 118-4], the IC50 was found to be 10 nM.

With `CCO[C@H](c1ccc([C@H](CC)CC(=O)O)cc1NC(=O)Nc1ccc(Cl)cc1F)C(F)(F)F` (single isomer, unassigned) [Example 9], the IC50 came out at 10 nM.

Take “(S)-3-(3-(3-(4-cyano-3-fluorophenyl)ureido)-4-((R)-1-ethoxy-2,2,2-trifluoroethyl)phenyl)-4-methoxybutanoic acid [Example 63]”: the IC50 was 20 nM.

Turning to `CCO[C@H](c1ccc([C@H](COC)CC(=O)O)cc1Nc1ccc(Cl)cc1)C(F)(F)F` (single isomer, unassigned) [Example 58], the half-inhibitory concentration (IC50) amounted to 20 nM.

As to `CCO[C@@H](c1ccc([C@@H](COC)CC(=O)O)cc1Nc1ccc(C#N)c(F)c1)C(F)(F)F` (single isomer, unassigned) [Example 77], the IC50 worked out at 30 nM.

In the case of `CCO[C@H](c1ccc([C@@H](COC)CC(=O)O)cc1Nc1cnc(C)nc1)C(F)(F)F` (single isomer, unassigned) [Example 67], the IC50 stood at 410 nM.

In the case of `CC[C@@H](CC(=O)O)c1ccc([C@@H](CC)N2CCOCC2)c(Nc2ccc(C#N)cc2)c1` (single isomer, unassigned) [Example 124], the IC50 came to 70 nM.

In the case of `CCO[C@@H](c1ccc([C@H](CC)CC(=O)O)cc1NC(=O)Nc1ccc(C)cc1)C(F)(F)F` (single isomer, unassigned) [Example 31], the 50% inhibitory concentration (IC50) came out at 20 nM.

`CCO[C@@H](c1ccc([C@H](COC)CC(=O)O)cc1Nc1ccc(C#N)cc1)C(F)(F)F` (relative stereo) [Example 73, (R)-3-(3-((4-cyanophenyl)amino)-4-((S)-1-ethoxy-2,2,2-trifluoroethyl)phenyl)-4-methoxybutanoic acid]: the IC50 came to 10 nM.

Regarding `CCOc1cnc(Nc2cc([C@H](CC)CC(=O)O)ccc2[C@@H](OCC)C(F)(F)F)cn1` (single isomer, unassigned) [Example 13], the concentration for half-maximal inhibition (IC50) is 10 nM.

In the case of `CCO[C@@H](c1ccc([C@H](COC)CC(=O)O)cc1Nc1ccc(C#N)c(F)c1)C(F)(F)F` (relative stereo) [Example 70, (R)-3-(3-((4-cyano-3-fluorophenyl)amino)-4-((S)-1-ethoxy-2,2,2-trifluoroethyl)phenyl)-4-methoxybutanoic acid], the IC50 is 30 nM.

For `CC[C@H](CC(=O)O)c1ccc([C@H](OC)C(F)(F)F)c(Nc2cnc(C(F)(F)F)nc2)c1` (single isomer, unassigned) [Example 96], the IC50 worked out at 10 nM.

On to `CCO[C@H](c1ccc([C@@H](COC)CC(=O)O)cc1NC(=O)Nc1ccc(C)cc1)C(F)(F)F` (single isomer, unassigned) [Example 60], for which the IC50 was found to be 910 nM.

Turning to `CCO[C@H](c1ccc([C@@H](CC)CC(=O)O)cc1NC(=O)Nc1ccc(C)cc1)C(F)(F)F` (single isomer, unassigned) [Example 19], the IC50 turned out to be 580 nM.

For `CC[C@H](CC(=O)O)c1ccc([C@@H](CC)N2CCOCC2)c(Nc2cnc(C)nc2)c1` (relative stereo) [Example 120, (R)-3-(3-((2-methylpyrimidin-5-yl)amino)-4-((R)-1-morpholinopropyl)phenyl)pentanoic acid], the IC50 stood at 80 nM.

As for `CCc1ncc(Nc2cc([C@H](CC)CC(=O)O)ccc2[C@@H](CC)N2CCOCC2)cn1` (single isomer, unassigned) [Example 119], the IC50 turned out to be 20 nM.

Turning to `CC[C@H](CC(=O)O)c1ccc([C@H](OC)C(F)(F)F)c(Nc2cnc(C)nc2)c1` (single isomer, unassigned) [Example 94], the IC50 is 70 nM.

`CCOc1ncc(Nc2cc([C@@H](CC)CC(=O)O)ccc2[C@H](OCC)C(F)(F)F)cn1` (single isomer, unassigned) [Example 45]: the IC50 worked out at 30 nM.

The same test, now with this note: HeLa cells, IFNγ 25 ng/mL, 48 hour incubation; read-out: IDO Hela IC50 class (A < 50, B < 250, C < 2000).
For `CC[C@H](CC(=O)O)c1ccc([C@@H](CC)N2CCOCC2)c(Nc2ccc(Cl)cc2)c1` (relative stereo) [Example 123, (R)-3-(3-((4-chlorophenyl)amino)-4-((R)-1-morpholinopropyl)phenyl)pentanoic acid], the IC50 was below 50 nM.

As for `CCOc1ncc(Nc2cc([C@@H](CC)CC(=O)O)ccc2[C@H](CC)N2CCOCC2)cn1` (single isomer, unassigned) [Example 118-3], the IC50 is below 50 nM.

For the compound “(S)-3-(3-(3-(4-cyano-3-fluorophenyl)ureido)-4-((R)-1-ethoxy-2,2,2-trifluoroethyl)phenyl)-4-methoxybutanoic acid [Example 63]”, the IC50 was below 50 nM.

`CC[C@H](CC(=O)O)c1ccc([C@H](OC)C(F)(F)F)c(Nc2ccc(C#N)cc2)c1` (single isomer, unassigned) [Example 93]: the half-maximal inhibitory concentration (IC50) was below 50 nM.

Regarding `CCO[C@@H](c1ccc([C@@H](COC)CC(=O)O)cc1Nc1ccc(C#N)cc1)C(F)(F)F` (single isomer, unassigned) [Example 80], the IC50 is below 50 nM.

Consider `CC[C@@H](CC(=O)O)c1ccc([C@H](OC)C(F)(F)F)c(Nc2ccc(C#N)cc2)c1` (single isomer, unassigned) [Example 97], for which the IC50 is below 50 nM.

`CC[C@H](CC(=O)O)c1ccc([C@@H](OC)C(F)(F)F)c(Nc2ccc(Cl)cc2)c1` (single isomer, unassigned) [Example 83-2]: the IC50 is below 50 nM.

Consider `CCO[C@H](c1ccc([C@@H](CC)CC(=O)O)cc1Nc1ccc(F)cc1)C(F)(F)F` (relative stereo) [Example 30, (S)-3-(4-((R)-1-ethoxy-2,2,2-trifluoroethyl)-3-((4-fluorophenyl)amino)phenyl)pentanoic acid], for which the IC50 was below 50 nM.

For `CC[C@H](CC(=O)O)c1ccc([C@@H](CC)C2CCOCC2)c(Nc2ccc(COC)nc2)c1` (single isomer, unassigned) [Example 127], the IC50 was below 50 nM.

As for `CCO[C@@H](c1ccc([C@H](COC)CC(=O)O)cc1Nc1cnc(C)nc1)C(F)(F)F` (single isomer, unassigned) [Example 74], the IC50 fell in the range of 250 to 2000 nM.

As for “(S)-3-(4-((S)-1-ethoxy-2,2,2-trifluoroethyl)-3-((4-fluorophenyl)amino)phenyl)pentanoic acid [Example 48]”, the IC50 was below 50 nM.
